Reference: patent US20220347294A1, “COMPOSITIONS AND METHODS FOR INCREASING THE EFFICACY OF IMMUNOTHERAPIES AND VACCINES” (The Regents of the University of Michigan, priority 2019, published 2022)

Legend:
[1] = Fiber gel formation: inulin gel with added natural fibers or excipients; format: physicochemical; settings: heated at 70° C. for 5 minutes, cooled overnight
From the text: FIG. 24: Inulin gel was formed after adding various amounts of natural fibers or excipients. The values shown are the maximum amount of each ingredient that could be added to 23% w/w inulin gel without disrupting the gel formation.
Experiments were next conducted involving the formation of new fiber gels by combining inulin with other natural dietary fibers or pharmaceutical excipients. Briefly, inulin gels were manufactured by first mixing 23% w/w inulin together with other excipients, including resistant potato starch, pectin, guar gum, bean gum, gelatin, or glycerol. Other natural fibers would provide additional nutrient source for commensal microbiome, while other excipients served as thickening reagents in these formulations. The mixtures were then heated at 70° C. for 5 minutes, followed by cooling at room temperature overnight. During the manufacturing processes, both pre-dissolving and dry-blending were used in order to add the excipients, based on individual dissolutions in water. […] The ingredients were first mixed in water (top panel), heated at 70° C. for 5 minutes (middle panel), followed by cooling at room temperature overnight, leading to the formation of fiber gels (bottom panel) (FIG. 23).
Experiments were next conducted that varied the amount of natural fibers and excipients added to inulin gel and determined the ideal composition for forming fiber gels. […] The indicated values are the maximum amount of each ingredient that could be added to 23% w/w inulin gel without disrupting gel formation.

CT26 cells = assay: Therapeutic oral gavage plus α-PD-1 in the CT26 tumor model; format: in vivo, BALB/c mice; settings: 60 mg for inulin, 50 mg/Kg for melatonin
Procedure: (A) 1.5×10^5 CT26 cells were inoculated in BALB/c mice subcutaneously (sc) on day 0. Mice were gavaged from day 7 (5 times per week). On days 11, 15, 19 and 23, α-PD-1 was injected intraperitoneally (ip) at 100 μg per dose. (B) The average tumor growth curves for mice gavaged with various compounds. Data represent mean±SEM. (C) Individual tumor growth curves and (D) survival rate curves of various groups. […] All the data are from 2-3 independent experiments; n=10 (B, C, D), n=7-10 (E, F) *p<0.05, **p<0.01, analysed by two-way ANOVA (B), one-way ANOVA (E, F) or log-rank (Mantel-Cox) test.
(B) The average tumor growth curves and individual tumor growth curve for mice gavaged with inulin or inulin gel (60 mg/dosage). 1.5×10^5 CT26 cells were inoculated in BALB/c mice subcutaneously. Gavage started from day 7 (5 times per week) and 100 μg of α-PD-1 was ip injected on days 11, 15, 19, 23 and 27. (C) The survival rate curves of various groups. […] PBS was used as a control. […] Shown are the average and individual tumor growth curves for tumor-bearing mice. IgG antibody was used as a control group. Data represent mean SEM. All the data are from 2-3 independent experiments; n=10 (B, C), n=5 (D, I), n=10-15 (E), n=4-7 (G, F), *p<0.05, **p<0.01, ***p<0.001, analysed by one-way ANOVA (E, F), two-way ANOVA (B, I), or log-rank (Mantel-Cox) test (C).
Female C57BL/6 or BALB/c mice of 6-8-week old were obtained from Jackson Laboratory. BALB/c mice were inoculated with 1.5×10^5 CT26 cells per mouse, while C57BL/6 mice were inoculated with 1.2×10^6 MC38 cells per mouse on the right flank by subcutaneous injection on day 0. Tumor-bearing mice were randomly assigned to different groups on day 5. For prophylactic antitumor study, mice were received oral gavage with melatonin (100 mg/Kg bodyweight/dosage), EGCG (100 mg/Kg bodyweight/dosage), fucoidan (200 mg/Kg bodyweight/dosage), oligofructose (120 mg/dosage), or inulin (120 mg/dosage) three times for one week prior to tumor inoculation. After tumor inoculation, mice received oral gavage three times in the first week, followed by five times per week. Mice were injected i.p. with α-PD-1 antibody (100 μg/dosage) on days 10, 14, 18 and 22 post tumor inoculation. For the therapeutic therapy, mice were inoculated with tumor cells on day 0 as indicated above and treated with the indicated samples by oral gavage starting day 7 post tumor inoculation.

[2] = tested on: AH1-specific CD8+ T cells; assay: Tetramer analysis of AH1-specific CD8+ T cells in PBMCs; format: in vivo, BALB/c mice; settings: prophylactic oral gavage combined with α-PD-1 IgG; peripheral blood day 22
From the text: The effect of these materials were next tested on systemic immune responses. The surrogate marker of tumor specific antigen, MHC-I minimal epitope of CT-26 gp70 (AH1) (H-2L^d-restricted SPSYVYHQF (SEQ ID NO.: 1)), was employed to quantitate the frequency of AH1-specific CD8^+ T cells among peripheral blood mononuclear cells (PBMCs). Mice orally gavaged with inulin and melatonin combined with α-PD-1 IgG induced 1.7-fold and 1.8-fold greater frequencies of AH1-specific CD8^+ T cells, compared with α-PD-1 treatment alone (FIGS. 1E and F).
Peripheral blood mononuclear cells (PBMCs) were collected at preset times to analyze tumor antigen-specific CD8^+ T cells in the systemic circulation. Red blood cells were lysed, and the remaining cells were blocked with anti-CD16/32 antibody for 10 min and stained with peptide-MHC tetramer, including H-2L^d-restricted SPSYVYHQF (SEQ ID NO.: 1) or H-2D^b-restricted ASMTNMELM (SEQ ID NO.: 3). Both the tetramers were provided by NIH Tetramer Core Facility. Cells were also stained anti-CD8-APC (BD Biosciences, #553035) and DAPI for flow cytometric analysis.

CT26 tumor = assay: Tumor microenvironment analysis (tumor-infiltrating cells, flow cytometry); format: in vivo, BALB/c mice; settings: combined with α-PD-1 IgG, day 24
Procedure: After treatment with various samples, tumor tissues were excised at preset time points for analysis of tumor-infiltrating T cells. Tumor tissues were excised, cut into small pieces, and incubated with collagenase type IV (1 mg/ml) and of DNase I (0.1 mg/ml) with gentle shaking. After 30 min, cell suspension was filtered through a 70-μm strainer. Cells were washed with FACS buffer and blocked with anti-CD16/32 antibody. Cells were then stained with various antibodies (CD4 Monoclonal Antibody (GK1.5)-PE (eBioscience), APC-Anti-CD45 Rat Monoclonal Antibody (clone: 30-F11), FITC-Anti-CD45 Rat Monoclonal Antibody (clone: 30-F11), FITC-Rat Anti-Mouse CD8a Clone 53-6.7 (BD Biosciences), PE labeled H-2L-restricted SPSYVYHQF (SEQ ID NO.: 1), FITC-Anti-CD86 Rat Monoclonal Antibody (clone: GL-1, BioLegend), PE-CD11c Armenian Hamster anti Mouse (Clone: N418, eBioscience), PE-Cy7-Anti-mouse PD-1 (clone: 29F.1A12, BioLegend), FITC-CD44 Rat anti-Human/Mouse (clone: IM7, eBioscience), PE-Cy7-CD62L Monoclonal Antibody (MEL-14) (eBioscience), PE-Tcf1/Tcf7 (C63D9) Rabbit mAb (Cell Signaling Technology, #14456), PE-Cy7-Anti-mouse CD86 (Clone: GL1, BD Bioscience), FITC anti-mouse/human CD11b (M1/70, BioLegend), PE-anti-mouse F4/80 (BM8, BioLegend), or APC anti-mouse CD206 (MMR, BioLegend)). The cells were washed and stained with DAPI, or 7-AAD, or efluor 450 for flow cytometric analysis.

[3] = Potato starch gel formation; format: physicochemical; settings: in water, gentle stirring at 70° C., when the swelling was completed
Procedure: FIG. 22: Food grade potato starch was pre-hydrated at concentrations of 0.1, 0.5, 2.5, and 5% w/v in water, followed by gentle stirring at 70° C. After cooling, gel formation was examined.
Experiments were next conducted that examined gel formation using potato starch, another prebiotic natural fiber. The impact of potato starch concentration on gel formation was examined. Food grade potato starch (Bob's Red Mill) was pre-hydrated at desired concentrations of 0.1, 0.5, 2.5, and 5% w/v in water, followed by gentle stirring at 70° C. […] Potato starch was instantly gelatinized at concentrations above 5% w/v when the swelling was completed.

| Compound | maximum amount of ingredient that could be added to 23% w/w inulin gel without disrupting gel formation [1] | other results |
| --- | --- | --- |
| OCC(O)CO [glycerol] | 50 % (w/w) |  |
| COc1ccc2[nH]cc(CCNC(C)=O)c2c1 [melatonin, reference compound] |  | combination efficacy with α-PD-1 against tumor growth after reducing the dosage by half (CT26 cells): did not compromise; frequencies of AH1-specific CD8+ T cells among PBMCs, fold greater than α-PD-1 treatment alone [2]: 1.8 fold; intratumoral infiltration of T cells compared with α-PD-1 IgG alone (CT26 tumor): significantly enhanced |
| gelatin | 5.0 % (w/w) |  |
| guar gum | 0.5 % (w/w) |  |
| pectin | 2 % (w/w) |  |
| potato starch | 5 % (w/w) | concentration at which potato starch was instantly gelatinized [3]: above 5 % w/v |
